Assay results taken from patent US11014952B2, “Stable hydrolysis-resistant synthetic polyribosylribitolphosphate derivatives as vaccines against Haemophilus influenzae type b” (MAX-PLANCK-GESELLSCHAFT ZUR FÖRDERUNG DER WISSENSCHAFTEN …, priority 2016, dated 2021).

Experiments:
[1] = tested on: anti-Hib antibodies in rabbit typing serum; assay: Glycan array analysis with rabbit typing serum; assay type: binding; settings: for inhibition of binding by natural Hib PRP: Hib PRP inhibitor present (FIG. 17B); for binding of anti-Hib antibodies to printed saccharide: no inhibitor (FIG. 17B)
Protocol: (§1) Saccharides in PBS were printed on N-Hydroxy succinimide activated glass slides (CodeLink slides, Surmodics) using an S3 microarray spotter (Scienion). Slides were incubated overnight in a humidity saturated chamber, quenched for 2 h with 100 mM ethanolamine, 50 mM sodium phosphate, pH 7.5, washed with water and dried.
(§2) For incubation, slides were blocked for 1 h with 3% (w/v) BSA-PBS, washed with PBS and water, and dried by centrifugation. A 64 well incubation grid was attached. Sera were diluted in 3% BSA-PBS, 0.1% (v/v) Tween-20, incubated at 37° C. for 15 min, and centrifuged for 2 min at 3220 rpm. Serum dilutions were applied to the slide and incubated for 1 h at room temperature. Wells were washed three times with PBS+0.1% Tween-20 (PBS-T). Secondary antibodies (anti-rabbit IgG FITC, anti-rabbit IgM AlexaFluor 647, anti-human IgG-Fc AlexaFluor 488 and IgM AlexaFluor 594) were incubated on the slides for 30 min at r.t. Wells were washed twice with PBS-T, the incubation grid was removed, and the slide washed with PBS and water. After drying by centrifugation, the slide was scanned using a GenePix 4300A (Molecular Devices) microarray reader.

[2] = Stability in basic medium (0.1 M NaOH); assay type: physicochemical; settings: for cleaved completely after: aqueous basic conditions as applied in Example H-1 (0.1 M NaOH)
Protocol: Stability study of the inventive saccharides is critical for the development of stable liquid Hib glycoconjugate vaccines. As a control we examined first the stability and cleavage of Hib polyribosylribitolphosphate capsular polysaccharide (CPS). Accordingly, Hib CPS was fragmented using standard procedures as described in Vaccine, 2000, 18, 1982-1993: 1 mg Hib CPS in 0.43 mL of 0.1 M NaOH, 20 h. Fragments obtained after purification (filtered through 30 kDa Amicon filters followed by desalting) were analyzed by ^1H NMR, HPLC and HRMS.
The stability of dimer 16 was further investigated under aqueous basic conditions as applied in Example H-1. From the HPLC chromatogram in FIG. 13D it was concluded that dimer 16 got cleaved completely after 4 days, while the natural Hib CPS got already cleaved completely within 20 hours.
The stability of tetramer 29 was further investigated under aqueous basic conditions as applied in Example H-1. From the HPLC chromatogram in FIG. 13A it was concluded that tetramer 29 got cleaved completely after 4 days, while the natural Hib CPS got already cleaved completely within 20 hours.

[3] = tested on: anti-Hib antibodies present in human reference serum; assay: Glycan array analysis with Hib human reference serum; assay type: binding; settings: for inhibition of binding by natural Hib PRP: Hib PRP inhibitor present (FIG. 17A); for binding of anti-Hib antibodies to printed saccharide: no inhibitor (FIG. 17A)
Protocol: as §1, §2

[4] = tested on: antibodies raised by immunization with compound 94; assay: Glycan array: binding of printed saccharides to antibodies raised by immunization with compound 94; set-up: species or system rabbit; settings: sera of rabbits immunized with conjugate 94 with and without Alhydrogel (FIG. 17C, D)
Protocol: Four groups with four rabbits per each group were immunized in a prime-boost regime with unadjuvanted conjugate 94 containing 5 μg saccharide 29 or conjugate 94 (containing 5 μg Hib saccharide 29) adjuvanted with Alhydrogel. The negative control group received PBS/Alhydrogel only. The positive control group received the approved vaccine ActHIB® (5 μg PRP, corresponding to half the human dose), a conjugate of native PRP to tetanus toxoid (TT). Preimmune serum and antiserum of bleeding day 21 (following two immunizations) were taken and analyzed on a glycan array. The ActHIB-specific serum was obtained after three administrations in contrast to two immunisations of the HIB analogues of the present invention.
as §1, §2
The primary immune response was assessed by glycan array screening of serum samples retrieved at day 0, day 21 and day 35. 2′-Methoxyribosylribitolphosphate dimer 19, 2′-methoxyribosylribitolphosphate dimer 24, 2′-Methoxyribosylribitolphosphate tetramer 29, 2′-deoxyribosylribitolphosphate tetramer 53 and 2′-dimethyl-aminocarbonylribosylribitolphosphate 62 as well as natural Hib PRP were printed on NHS ester-activated microarray slides. After immunization with conjugate 94 adjuvanted with Alhydrogel and without adjuvant, antibodies of the IgG and IgM subtypes against the Hib PRP derivatives 19, 24, 29, 53 and 62 as well as against the natural Hib PRP polysaccharide in all immunized rabbits were detected.

[5] = Stability in presence of aluminum hydroxide (Alhydrogel), aluminum phosphate, phosphate buffer or water, HPLC; assay type: physicochemical; settings: for cleavage to smallest fragments observed after: Alhydrogel
Protocol: Having established the stability data of the control Hib CPS, then the stability of Hib CPS in aluminum hydroxide was investigated, where it is known to be unstable in a vaccine formulation {0.5 mg Hib CPS, 3 mL Alhydrogel® (Brentag) and 22 mL milli-Q water} at various temperatures {37° C. (A1) and rt (A3)}. At 37° C. cleavage to smallest fragments were observed after 2 days and at rt this pattern was observed after day 7 (FIG. 6). From this experiment it was confirmed that, Hib CPS decomposes to 2 and 3-O phosphate fragments in 2 to 7 days depending on temperature in Aluminum hydroxide the most common adjuvant used in commercial vaccines.
Stability studies of synthesized 2′-methoxyribosylribitolphosphate dimer 16 were conducted in presence of various adjuvants. As a first step stability of 16 was studied using Al(OH)3, AlPO4 and water at various temperatures {37° C. (A1), 2-8° C. (A2), rt (A3) and 70° C. (A4)}.
The amount of Al(OH)3 and AlPO4 used for this study was similar to the amount present in commercial Hib vaccines. Compounds 16 and 8 were used as reference since decomposition of dimer 16 should lead to monomer 8. Every 24 h 40 μL of solution was aliquoted from each vial and centrifuged for 4 min at 5000 rpm. Supernatant (25 μL) was taken for HPLC analysis. […] From this study it was clear that 2′-methoxyribosylribitol dimer 16 was stable at 37° C. (A1), 2-8° C. (A2), r.t. (A3) and at 70° C.
Stability studies of synthesized 2′-methoxyribosylribitolphosphate tetramer bearing a linker 29 were conducted in presence of various adjuvants. As a first step stability of 29 was studied using Al(OH)3, phosphate buffer (PBS) and water at various temperatures {2-8° C. (A2), and r.t. (A3)}.
The amount of Al(OH)3 used for this study was similar to the amount present in commercial Hib vaccines. Compounds 29, 16 and 8 were used as reference since decomposition of tetramer 29 should lead to dimer 16 and monomer 8. Every 24 h 40 μL of solution was aliquoted from each vial and centrifuged for 4 min at 5000 rpm. Supernatant (25 μL) was taken for HPLC analysis. […] From this study it was clear that 2′-methoxyribosylribitolphosphate tetramer 29 is stable in presence of Al(OH)3, in phosphate buffer (PBS) and in water at 2-8° C. (A2) and r.t. (A3).

Molecule	inhibition of binding by natural Hib PRP [1]	binding of anti-Hib antibodies to printed saccharide [1]	cleaved completely after ([2]; HPLC) [days]	inhibition of binding by natural Hib PRP [3]	binding of anti-Hib antibodies to printed saccharide [3]	antibodies of the IgG and IgM subtypes against the saccharide after immunization with conjugate 94 [4]	further results
2′-Methoxyribosylribitolphosphate tetramer [Compound 29]	inhibits the binding	bind	4	inhibits the binding	bind	detected	stability ([5]; Al(OH)3, phosphate buffer (PBS) and water, 2-8° C. (A2)): stable; decomposition after 7 days (HPLC) ([5]; Al(OH)3, phosphate buffer (PBS) and water, 2-8° C. and r.t.): no decomposition was observed; stability ([5]; Al(OH)3, phosphate buffer (PBS) and water, r.t. (A3)): stable
2′-deoxyribosylribitolphosphate tetramer [Compound 53]	not	bind		not	bind	detected	
COC1C(O)[C@@H](CO)O[C@H]1OCC(O)C(O)C(O)COP(=O)(O)OC1C(OC)[C@H](OCC(O)C(O)C(O)CO)O[C@@H]1CO (stereo partly drawn) [Compound 16, 2′-methoxyribosylribitolphosphate dimer]			4				stability ([5]; Al(OH)3, AlPO4 and water, 2-8° C. (A2), 7 days): stable; stability ([5]; Al(OH)3, AlPO4 and water, 37° C. (A1), 7 days): stable; decomposition after 7 days (HPLC) ([5]; Al(OH)3, AlPO4 and water, 37° C., 2-8° C., rt and 70° C.): no decomposition was observed; stability ([5]; Al(OH)3, AlPO4 and water, 70° C., 7 days): stable; stability ([5]; Al(OH)3, AlPO4 and water, r.t. (A3), 7 days): stable
COC1C(O)[C@@H](CO)O[C@H]1OCC(O)C(O)C(O)COP(=O)(O)OC1C(OC)[C@H](OCC(O)C(O)C(O)COP(=O)(O)OCCCCCN)O[C@@H]1CO (stereo partly drawn) [Compound 19, 2′-Methoxyribosylribitolphosphate dimer]	inhibits the binding	bind		inhibits the binding	bind	detected	
COC1C(OP(=O)(O)OCCCCCN)[C@@H](CO)O[C@H]1OCC(O)C(O)C(O)COP(=O)(OCc1ccccc1)OC1C(OC)[C@H](OCC(O)C(O)C(O)CO)O[C@@H]1CO (stereo partly drawn) [Compound 24, 2′-methoxyribosylribitolphosphate dimer]	inhibits the binding	bind		inhibits the binding	bind	detected	
Hib polyribosylribitolphosphate capsular polysaccharide [Hib CPS, reference compound]						detected	cleavage products in basic medium ([2]; 0.1 M NaOH, 20 h, 1H NMR, HPLC, HRMS): cleaved to its smallest 2 and 3-0 phosphate fragments; time to complete hydrolysis / cleavage under basic conditions ([2]; 0.1 M sodium hydroxide solution): ≤ 20 h; stability in basic aqueous media or in the presence of aluminum salts ([2]; basic aqueous media, suspensions with aluminum phosphate or aluminum hydroxide): hydrolyzes within one day; cleavage to smallest fragments observed after ([5]; 37° C.): 2 days; cleavage to smallest fragments observed after ([5]; rt): 7 days
